Values of other authors in US20090252647A1, “COMPOSITIONS AND METHODS FOR APPLYING ANTIMICROBIALS TO SUBSTRATES” (Crosstex International, Inc., priority 2008, published 2009).

CCCCCCCCCCCCCCCCCC[N+](C)(C)CCC[Si](O)(O)O.[Cl-] [3-(trihydroxysilyl)propyldimethyloctadecyl ammonium chloride]
solubility in water: approximately 15 % w/v
